Measurements taken from patent US8242275B2, “Bicyclic pyrazole compounds as antibacterial agents” (Janssen Pharmaceutica NV, priority 2005, dated 2012).
≈ marks a conversion by molar mass, not a printed value. Where two headings read alike, the source gives them in different places.

Experiments:
[1] = system: E. coli KL-16 (GSC strain 4245); assay: In vitro antibacterial activity (MIC assay), broth microdilution; assay type: cell-based; conditions: Escherichia coli
In short: (§1)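 Bacteria at roughly 5×10^5 CFU/mL final were grown 16–24 h at 35° C in wells holding 2-fold serial dilutions (11 points) of compound prepared in 100% DMSO, following NCCLS M7-A5. MIC, in μg/mL, is the concentration that stops visible growth relative to untreated wells.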

S. aureus ATCC13709 = assay: as above; assay type: cell-based; conditions: Staphylococcus aureus, ATCC13709; read-out: S. aureus ATCC13709 MIC
In short: as §1

S. pneumoniae ATCC49619 = assay: as above; assay type: cell-based; conditions: Streptococcus pneumoniae, ATCC49619; read-out: S. pneumoniae ATCC49619 MIC
In short: as §1

E. coli DNA gyrase = target: T1, E. coli DNA gyrase (Escherichia coli, UniProt P0AES4+P0AES6); assay: DNA gyrase inhibition assay (supercoiling); assay type: biochemical
T1 construct: purchased John Innes Enterprises Ltd. (John Innes Centre, UK)
In short: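 Agarose-gel (1.0%, ethidium-stained) readout of supercoiled versus relaxed pBR322 after 30 min at 37° C. Each reaction held 250 ng DNA, 0.2 unit enzyme, 1 mM ATP, 4 mM MgCl2, 24 mM KCl in 35 mM Tris-HCl pH 7.5, and compound at 0.5% DMSO final.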

E. coli topoisomerase IV = target: T2, E. coli topoisomerase IV (Escherichia coli, UniProt P0AFI2+P20083); assay: Topoisomerase IV inhibition assay (relaxation); assay type: biochemical
T2 construct: purchased John Innes Enterprises Ltd. (John Innes Centre, UK)
Protocol: Inhibition of the relaxation activity of E. coli topoisomerase IV was determined using enzyme, buffers and substrates received from John Innes Enterprises Ltd. (John Innes Centre, UK). The reactions were performed according to the manufacturer's directions, with the following modifications.
DNA relaxation reactions were carried out in a total reaction volume of 20 μL, containing 300 ng of supercoiled pBR322, 40 mM HEPES-KOH (pH 7.6), 100 mM potassium glutamate, 10 mM Mg(OAc)2, 10 mM DTT, 4 μg/mL tRNA, 2 mM ATP, and 50 μg/mL BSA. Compounds, diluted in 10% DMSO, were added to the reaction mixture to reach a final concentration of 0.5% DMSO. Enzyme was diluted to 0.45 unit/μL in a solution of 40 mM HEPES-KOH (pH 7.6), 150 mM potassium glutamate, 1 mM DTT, 1 mM EDTA, and 40% glycerol. Diluted enzyme (0.9 unit) was added to each reaction.
The reactions were incubated at 37° C. for 45 min. The reactions were then cooled to 0° C. followed by addition of 3 μL of 40% glycerol, 100 mM Tris-HCl (pH 7.5), 50 mM EDTA, 0.5% SDS and 0.1% bromophenol blue. Samples were separated on 1.0% agarose gels. Gels were stained with Ethidium bromide and photographed with a Stratagene Eagle Eye II.

[2] = E. coli DNA gyrase supercoiling, visual inspection of gels, read-out: DNA Gyrase IC50 (converted)
[3] = E. coli topoisomerase IV relaxation, visual inspection of gels, read-out: Topoisomerase IV IC50 (converted)

T1 sequence (P0AES4 whole entry, one chain of several): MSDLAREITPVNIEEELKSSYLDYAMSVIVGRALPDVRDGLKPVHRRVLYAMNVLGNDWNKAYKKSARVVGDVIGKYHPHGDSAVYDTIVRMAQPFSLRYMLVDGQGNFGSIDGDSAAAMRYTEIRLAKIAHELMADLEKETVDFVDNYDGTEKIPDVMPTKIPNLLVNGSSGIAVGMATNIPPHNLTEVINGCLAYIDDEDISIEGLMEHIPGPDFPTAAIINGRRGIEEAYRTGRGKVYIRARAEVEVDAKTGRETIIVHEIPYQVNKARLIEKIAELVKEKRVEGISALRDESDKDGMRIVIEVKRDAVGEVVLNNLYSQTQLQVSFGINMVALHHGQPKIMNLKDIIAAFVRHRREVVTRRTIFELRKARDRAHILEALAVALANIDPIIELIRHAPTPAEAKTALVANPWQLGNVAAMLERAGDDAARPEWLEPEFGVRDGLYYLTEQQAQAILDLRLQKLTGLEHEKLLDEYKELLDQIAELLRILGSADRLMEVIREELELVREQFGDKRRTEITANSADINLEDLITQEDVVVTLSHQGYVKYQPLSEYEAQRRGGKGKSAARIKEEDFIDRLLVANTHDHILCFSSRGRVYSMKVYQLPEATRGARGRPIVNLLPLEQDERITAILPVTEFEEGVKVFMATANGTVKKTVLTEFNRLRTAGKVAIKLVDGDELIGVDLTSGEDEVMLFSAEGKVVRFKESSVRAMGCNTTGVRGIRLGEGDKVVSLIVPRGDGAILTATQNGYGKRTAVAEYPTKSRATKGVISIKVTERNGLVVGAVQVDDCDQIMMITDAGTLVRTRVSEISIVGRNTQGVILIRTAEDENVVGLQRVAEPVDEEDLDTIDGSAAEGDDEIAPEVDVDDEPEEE
T2 sequence (P0AFI2 whole entry): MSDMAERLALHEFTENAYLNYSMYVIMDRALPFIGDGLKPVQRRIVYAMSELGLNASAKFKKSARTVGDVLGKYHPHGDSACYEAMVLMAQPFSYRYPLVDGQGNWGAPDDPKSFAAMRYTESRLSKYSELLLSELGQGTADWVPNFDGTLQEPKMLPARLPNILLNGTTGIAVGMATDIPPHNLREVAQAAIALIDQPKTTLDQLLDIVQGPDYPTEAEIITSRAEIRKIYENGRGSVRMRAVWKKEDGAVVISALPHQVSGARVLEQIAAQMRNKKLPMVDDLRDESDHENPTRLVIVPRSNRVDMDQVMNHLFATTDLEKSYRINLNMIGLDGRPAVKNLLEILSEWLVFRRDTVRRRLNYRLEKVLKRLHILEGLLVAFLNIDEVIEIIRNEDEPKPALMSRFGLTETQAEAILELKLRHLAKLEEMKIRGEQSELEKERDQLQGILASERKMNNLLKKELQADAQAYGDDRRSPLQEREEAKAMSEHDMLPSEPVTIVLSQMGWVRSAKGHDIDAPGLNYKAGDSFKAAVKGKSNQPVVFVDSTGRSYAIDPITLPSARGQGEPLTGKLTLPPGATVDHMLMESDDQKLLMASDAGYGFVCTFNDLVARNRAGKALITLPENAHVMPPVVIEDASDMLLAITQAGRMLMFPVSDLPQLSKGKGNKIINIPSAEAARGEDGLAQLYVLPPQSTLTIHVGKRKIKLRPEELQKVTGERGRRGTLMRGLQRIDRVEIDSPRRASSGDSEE
T2 sequence (P20083 whole entry): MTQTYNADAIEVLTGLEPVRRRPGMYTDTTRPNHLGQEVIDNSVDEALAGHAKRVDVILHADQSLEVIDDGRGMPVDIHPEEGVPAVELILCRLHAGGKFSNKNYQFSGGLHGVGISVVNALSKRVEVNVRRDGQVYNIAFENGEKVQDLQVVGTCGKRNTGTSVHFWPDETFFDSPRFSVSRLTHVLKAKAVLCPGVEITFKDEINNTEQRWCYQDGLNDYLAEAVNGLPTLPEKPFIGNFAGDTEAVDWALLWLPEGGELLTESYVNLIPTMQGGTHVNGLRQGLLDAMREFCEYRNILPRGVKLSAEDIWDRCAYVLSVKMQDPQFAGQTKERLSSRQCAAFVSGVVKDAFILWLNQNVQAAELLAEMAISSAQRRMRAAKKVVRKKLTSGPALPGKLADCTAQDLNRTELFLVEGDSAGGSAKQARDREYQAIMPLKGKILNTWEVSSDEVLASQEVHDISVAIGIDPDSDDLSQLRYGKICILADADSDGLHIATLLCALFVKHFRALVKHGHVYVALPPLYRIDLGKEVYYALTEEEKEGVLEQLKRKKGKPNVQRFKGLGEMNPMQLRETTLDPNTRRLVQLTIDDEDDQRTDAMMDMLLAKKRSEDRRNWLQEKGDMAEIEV

## COc1ccc2nccc(-n3cc4c(n3)CCC(NCc3ccc5c(c3)NCCS5)C4)c2n1 (centres unmarked) [Example 36, (3,4-Dihydro-2H-benzo[1,4]thiazin-6-ylmethyl)-[2-(6-methoxy-[1,5]naphthyridin-4-yl)-4,5,6,7-tetrahydro-2H-indazol-5-yl]-amine]
[1]
  MIC: 8 µg/mL (≈ 17.4 µM)
S. aureus ATCC13709
  MIC: < 0.125 µg/mL
S. pneumoniae ATCC49619
  MIC: 0.25 µg/mL (≈ 0.545 µM)
E. coli DNA gyrase; [2]
  IC50: 1090 nM
E. coli topoisomerase IV; [3]
  IC50: 65.4 nM

## COc1ccc2nccc(-n3cc4c(n3)CCC(NCc3ccc5c(c3)NCCS5)C4)c2c1 (centres unmarked) [Example 102]
[1]
  MIC: 8 µg/mL (≈ 17.5 µM)
S. aureus ATCC13709
  MIC: 0.5 µg/mL (≈ 1.09 µM)
S. pneumoniae ATCC49619
  MIC: 0.5 µg/mL (≈ 1.09 µM)
E. coli DNA gyrase; [2]
  IC50: 1090 nM
E. coli topoisomerase IV; [3]
  IC50: 137 nM

## O=C1CSc2ccc(C(=O)NC3CCc4nn(-c5ccnc6cc(Cl)ccc56)cc4C3)cc2N1 (centres unmarked) [Example 81, 3-Oxo-3,4-dihydro-2H-benzo[1,4]thiazine-6-carboxylic acid [2-(7-chloro-quinolin-4-yl)-4,5,6,7-tetrahydro-2H-indazol-5-yl]-amide]
[1]
  MIC: > 128 µg/mL
S. aureus ATCC13709
  MIC: 2 µg/mL (≈ 4.08 µM)
S. pneumoniae ATCC49619
  MIC: > 128 µg/mL
E. coli topoisomerase IV; [3]
  IC50: > 1020 nM

## COc1ccc2nccc(-n3cc4c(n3)CCC(NC(=O)c3ccc5c(c3)NC(=O)CO5)C4)c2n1 (centres unmarked) [Example 117, 3-Oxo-3,4-dihydro-2H-benzo[1,4]oxazine-6-carboxylic acid [2-(6-methoxy-[1,5]naphthyridin-4-yl)-4,5,6,7-tetrahydro-2H-indazol-5-yl]-amide]
[1]
  MIC: 4 µg/mL (≈ 8.5 µM)
S. aureus ATCC13709
  MIC: 0.125 µg/mL (≈ 0.266 µM)
S. pneumoniae ATCC49619
  MIC: 8 µg/mL (≈ 17 µM)
E. coli DNA gyrase; [2]
  IC50: 2130 nM
E. coli topoisomerase IV; [3]
  IC50: 531 nM

## COc1ccc2nccc(-n3cc4c(n3)CCC(NC(=O)c3cnc5ccccc5n3)C4)c2n1 (centres unmarked) [Example 70, Quinoxaline-2-carboxylic acid [2-(6-methoxy-[1,5]naphthyridin-4-yl)-4,5,6,7-tetrahydro-2H-indazol-5-yl]-amide]
[1]
  MIC: > 128 µg/mL
S. aureus ATCC13709
  MIC: 2 µg/mL (≈ 4.43 µM)
S. pneumoniae ATCC49619
  MIC: 32 µg/mL (≈ 70.9 µM)
E. coli DNA gyrase; [2]
  IC50: > 70900 nM
E. coli topoisomerase IV; [3]
  IC50: > 2210 nM

## O=C1CSc2ccc(C(=O)NC3CCc4nn(-c5cccc6ccccc56)cc4C3)cc2N1 (centres unmarked) [Example 34, 3-Oxo-3,4-dihydro-2H-benzo[1,4]thiazine-6-carboxylic acid (2-naphthalen-1-yl-4,5,6,7-tetrahydro-2H-indazol-5-yl)-amide]
[1]
  MIC: > 128 µg/mL
S. aureus ATCC13709
  MIC: 0.5 µg/mL (≈ 1.1 µM)
S. pneumoniae ATCC49619
  MIC: 8 µg/mL (≈ 17.6 µM)
E. coli DNA gyrase; [2]
  IC50: 4400 nM
E. coli topoisomerase IV; [3]
  IC50: 275 nM

## COc1ccc2nccc(-n3cc4c(n3)CCC(NC/C=C/c3ccccc3[N+](=O)[O-])C4)c2n1 (centres unmarked) [Example 89, [2-(6-Methoxy-[1,5]naphthyridin-4-yl)-4,5,6,7-tetrahydro-2H-indazol-5-yl]-[3-(2-nitro-phenyl)-allyl]-amine]
[1]
  MIC: 16 µg/mL (≈ 35 µM)
S. aureus ATCC13709
  MIC: 2 µg/mL (≈ 4.38 µM)
S. pneumoniae ATCC49619
  MIC: 2 µg/mL (≈ 4.38 µM)
E. coli DNA gyrase; [2]
  IC50: 274 nM
E. coli topoisomerase IV; [3]
  IC50: 32.9 nM

## COc1ccc2nccc(-n3cc4c(n3)CCC(NCCOc3cc(F)cc(F)c3)C4)c2c1 (centres unmarked) [Example 121]
[1]
  MIC: 8 µg/mL (≈ 17.8 µM)
S. aureus ATCC13709
  MIC: 1 µg/mL (≈ 2.22 µM)
S. pneumoniae ATCC49619
  MIC: 2 µg/mL (≈ 4.44 µM)
E. coli DNA gyrase
  IC50: 1110 nM
E. coli topoisomerase IV
  IC50: 277 nM

## COc1ccc2nccc(-n3cc4c(n3)CCC(NC(=O)C3(c5ccc(Cl)cc5)CCCC3)C4)c2c1 (centres unmarked) [Example 80, 1-(4-Chloro-phenyl)-cyclopentanecarboxylic acid [2-(6-methoxy-quinolin-4-yl)-4,5,6,7-tetrahydro-2H-indazol-5-yl]-amide]
[1]
  MIC: > 128 µg/mL
S. aureus ATCC13709
  MIC: 8 µg/mL (≈ 16 µM)
S. pneumoniae ATCC49619
  MIC: 128 µg/mL (≈ 255 µM)
E. coli DNA gyrase; [2]
  IC50: > 31900 nM
E. coli topoisomerase IV; [3]
  IC50: > 2000 nM

## COc1ccc2nccc(-n3cc4c(n3)CCN(CC(=O)c3ccc5c(c3)NC(=O)CO5)C4)c2c1 [Example 64, 6-{2-[2-(6-Methoxy-quinolin-4-yl)-2,4,6,7-tetrahydro-pyrazolo[4,3-c]pyridin-5-yl]-acetyl}-4H-benzo[1,4]oxazin-3-one]
[1]
  MIC: 64 µg/mL (≈ 136 µM)
S. aureus ATCC13709
  MIC: 4 µg/mL (≈ 8.52 µM)
S. pneumoniae ATCC49619
  MIC: 128 µg/mL (≈ 273 µM)
E. coli DNA gyrase; [2]
  IC50: > 8520 nM
E. coli topoisomerase IV; [3]
  IC50: 532 nM

## COc1ccc2nccc(-n3cc4c(n3)CCC(NC(=O)C(=O)c3cc5ccccc5[nH]3)C4)c2c1 (centres unmarked) [Example 26, 2-(1H-Indol-2-yl)-N-[2-(6-methoxy-quinolin-4-yl)-4,5,6,7-tetrahydro-2H-indazol-5-yl]-2-oxo-acetamide]
[1]
  MIC: > 128 µg/mL
S. aureus ATCC13709
  MIC: 0.25 µg/mL (≈ 0.537 µM)
S. pneumoniae ATCC49619
  MIC: 2 µg/mL (≈ 4.3 µM)
E. coli DNA gyrase; [2]
  IC50: > 34400 nM
